# Source: patent US11554171B2, “Compounds and methods for the targeted degradation of bromodomain-containing proteins” (Arvinas Operations, Inc., priority 2015, dated 2023)
# Test system: c-myc in 22RV-1 cells
# Experiment: Human c-myc ELISA assay
# Assay type: cell-based
# Settings: Homo sapiens; for Emax: 22Rv1, 18 h, read-out: Degradation of BRD4: Maximum inhibition (%) c-Myc ELISA in 22RV1 cells; for DC50: 22Rv1, read-out: Degradation of BRD4: DC50 (uM) c-Myc ELISA in 22RV1 cells
# How it was run: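 22RV-1 cells treated 18 h with 8-point 1:3 compound dilutions (final top 300 nM or 1 μM, 0.1% DMSO). Cells lysed in RIPA buffer with protease/phosphatase inhibitors, and c-myc protein in cleared lysate quantified by ELISA against a standard curve. DC50 reported for c-myc suppression.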
SMILES,Emax [%],DC50 [µM]
"Cc1ncsc1-c1ccc([C@H](C)NC(=O)[C@@H]2C[C@@H](O)CN2C(=O)[C@@H](NC(=O)CCc2cc(F)cc(O[C@H]3C[C@H](NC(=O)C[C@@H]4N=C(c5ccc(Cl)cc5)c5c(sc(C)c5C)-n5c(C)nnc54)C3)c2)C(C)(C)C)cc1 [Example 173, (2S,4R)-1-[(2S)-2-(3-{3-fluoro-5-[(1,3-trans)-3-{2-[(9S)-7-(4-chlorophenyl)-4,5,13-trimethyl-3-thia-1,8,11,12-tetraazatricyclo[8.3.0.0^2,^6]trideca-2(6),4,7,10,12-pentaen-9-yl]acetamido}cyclobutoxy]phenyl}propanamido)-3,3-dimethylbutanoyl]-4-hydroxy-N-[(1S)-1-[4-(4-methyl-1,3-thiazol-5-yl)phenyl]ethyl]pyrrolidine-2-carboxamide]",98,< 0.01
Cc1sc2c(c1C)C(c1ccc(Cl)cc1)=N[C@@H](CC(=O)N[C@H]1C[C@@H](Oc3cccc(-c4cnn([C@H](C(=O)N5C[C@H](O)C[C@H]5C(=O)N[C@@H](C)c5ccc(-c6nccn6C)cc5)C(C)C)c4)c3)C1)c1nnc(C)n1-2 [Example 291],22.2,> 1
Cc1ncsc1-c1ccc([C@H](C)NC(=O)[C@@H]2C[C@@H](O)CN2C(=O)[C@@H](C(C)C)n2cc(-c3cc(O[C@H]4C[C@H](NC(=O)C[C@@H]5N=C(c6ccc(Cl)cc6)c6c(sc(C)c6C)-n6c(C)nnc65)C4)ccn3)cn2)cc1 [Example 305],6.7,> 1
Cc1sc2c(c1C)C(c1ccc(Cl)cc1)=N[C@@H](CC(=O)N[C@H]1C[C@@H](Oc3ccc4oc(C(=O)N[C@H](C(=O)N5C[C@H](O)C[C@H]5C(=O)N[C@@H](C)c5ccc(-c6nccn6C)cc5)C(C)(C)C)cc4c3)C1)c1nnc(C)n1-2 [Example 262],55.5,0.1 to 1
Cc1ncsc1-c1ccc(CNC(=O)[C@@H]2C[C@@H](O)CN2C(=O)[C@H](C(C)C)n2cc(Oc3ccc(CNC(=O)C[C@@H]4N=C(c5ccc(Cl)cc5)c5c(sc(C)c5C)-n5c(C)nnc54)cc3)cn2)cc1 [Example 238],93.3,0.01 to 0.1
"Cc1ncsc1-c1ccc(CNC(=O)[C@@H]2C[C@@H](O)CN2C(=O)[C@@H](NC(=O)COCCN2CCN(c3ccc([C@H](C)NC(=O)C[C@@H]4N=C(c5ccc(Cl)cc5)c5c(sc(C)c5C)-n5c(C)nnc54)cc3)CC2)C(C)(C)C)cc1 [Example 58, (2S,4R)-1-[(2S)-2-{2-[2-(4-{4-[(1S)-1-{2-[(9S)-7-(4-chlorophenyl)-4,5,13-trimethyl-3-thia-1,8,11,12-tetraazatricyclo[8.3.0.0^2,^6]trideca-2(6),4,7,10,12-pentaen-9-yl]acetamido}ethyl]phenyl}piperazin-1-yl)ethoxy]acetamido}-3,3-dimethylbutanoyl]-4-hydroxy-N-{[4-(4-methyl-1,3-thiazol-5-yl)phenyl]methyl}pyrrolidine-2-carboxamide]",88,0.1 to 1
Cc1ncsc1-c1ccc(CNC(=O)[C@@H]2C[C@H](O)CN2C(=O)[C@@H](NC(=O)COCCCOCCNC(=O)C[C@@H]2N=C(c3ccc(Cl)cc3)c3c(sc(C)c3C)-n3c(C)nnc32)C(C)(C)C)cc1 [Example 73],21.4,> 1
Cc1ncsc1-c1ccc(CNC(=O)[C@@H]2C[C@@H](O)CN2C(=O)[C@@H](NC(=O)COCCN2CCC(c3ccc([C@@H](C)NC(=O)C[C@@H]4N=C(c5ccc(Cl)cc5)c5c(sc(C)c5C)-n5c(C)nnc54)cc3)CC2)C(C)(C)C)cc1 [Example 57],94,0.1 to 1
"Cc1ncsc1-c1ccc(CNC(=O)[C@@H]2C[C@@H](O)CN2C(=O)[C@@H](NC(=O)COCCCOCCCCCOc2ccc3c(c2)c2c(C(N)=O)cc(-c4c(C)noc4C)cc2n3Cc2ccccc2)C(C)(C)C)cc1 [Example 143, 9-benzyl-2-(dimethyl-1,2-oxazol-4-yl)-6-({5-[3-({[(2S)-1-[(2S,4R)-4-hydroxy-2-({[4-(4-methyl-1,3-thiazol-5-yl)phenyl]methyl}carbamoyl)pyrrolidin-1-yl]-3,3-dimethyl-1-oxobutan-2-yl]carbamoyl}methoxy)propoxy]pentyl}oxy)-9H-carbazole-4-carboxamide]",100,< 0.01
Cc1ncsc1-c1ccc([C@H](C)NC(=O)[C@@H]2C[C@@H](O)CN2C(=O)[C@H](C(C)C)n2cc(-c3ccnc(N4CC[C@@H](NC(=O)C[C@@H]5N=C(c6ccc(Cl)cc6)c6c(sc(C)c6C)-n6c(C)nnc65)C4)c3)cn2)cc1 [Example 266],97,< 0.01
Cc1ncsc1-c1ccc(CNC(=O)[C@@H]2C[C@@H](O)CN2C(=O)[C@H](C(C)C)N2Cc3ccccc3C2=O)c(OCCOCCOCCCCOCCOCCNC(=O)C[C@@H]2N=C(c3ccc(Cl)cc3)c3c(sc(C)c3C)-n3c(C)nnc32)c1 [Example 6],100,0.1 to 1
Cc1sc2c(c1C)C(c1ccc(Cl)cc1)=N[C@@H](CC(=O)N[C@H]1C[C@@H](Oc3cc(-c4cnn([C@@H](C(=O)N5C[C@H](O)C[C@H]5C(=O)N[C@@H](C)c5ccc(-n6ccnc6C)cc5)C(C)C)c4)ccn3)C1)c1nnc(C)n1-2 [Example 287],17.3,> 1
Cc1ncsc1-c1ccc([C@H](C)NC(=O)[C@@H]2C[C@@H](O)CN2C(=O)[C@H](C(C)C)n2cc(-c3ccnc(N4CCN(C(=O)C[C@@H]5N=C(c6ccc(Cl)cc6)c6c(sc(C)c6C)-n6c(C)nnc65)CC4)c3)cn2)cc1 [Example 322],92.6,< 0.01
Cc1ncsc1-c1ccc([C@H](C)NC(=O)[C@@H]2C[C@@H](O)CN2C(=O)[C@@H](NC(=O)COCCOCCCOc2ccc([C@H](C)NC(=O)CC3N=C(c4ccc(Cl)cc4)c4c(sc(C)c4C)-n4c(C)nnc43)cc2)C(C)(C)C)cc1 (some centres unmarked) [Example 108],95.4,0.1 to 1
Cc1ncsc1-c1ccc([C@H](C)NC(=O)[C@@H]2C[C@@H](O)CN2C(=O)[C@@H](NC(=O)CCOCCN2CCN(C(=O)C[C@@H]3N=C(c4ccc(Cl)cc4)c4c(sc(C)c4C)-n4c(C)nnc43)CC2)C(C)(C)C)cc1 [Example 318],79,0.1 to 1
C=Cc1ccc(C2=N[C@@H](CC(=O)Nc3ccc(OCCCOCCCOCC(=O)N[C@H](C(=O)N4C[C@H](O)C[C@H]4C(=O)NCc4ccc(-c5scnc5C)cc4)C(C)(C)C)cc3)c3nnc(C)n3-c3sc(C)c(C)c32)cc1 [Example 63],98.5,0.01 to 0.1
Cc1ncsc1-c1ccc(CNC(=O)[C@@H]2C[C@@H](O)CN2C(=O)[C@@H](NC(=O)COCCOCCOCCOCCNC(=O)C[C@@H]2N=C(c3ccc(Cl)cc3)c3c(sc(C)c3C)-n3c(C)nnc32)C(C)(C)C)cc1 [Example 38],94,0.01 to 0.1
Cc1ncsc1-c1ccc(CNC(=O)[C@@H]2C[C@@H](O)CN2C(=O)[C@@H](NC(=O)COCCCOCCCOc2ccc(NC(=O)C[C@@H]3N=C(c4ccc(Cl)cc4)c4c(sc(C)c4C)-n4c(C)nnc43)cc2)C(C)(C)C)cc1 [Example 16],98.6,0.01 to 0.1
Cc1ncsc1-c1ccc([C@H](C)NC(=O)[C@@H]2C[C@@H](O)CN2C(=O)[C@@H](C(C)C)n2cc(-c3cnc(O[C@H]4C[C@H](NC(=O)C[C@@H]5N=C(c6ccc(Cl)cc6)c6c(sc(C)c6C)-n6c(C)nnc65)C4)cn3)cn2)cc1 [Example 283],89.5,0.01 to 0.1
Cc1ncsc1-c1ccc([C@H](C)NC(=O)[C@H]2C[C@H](O)CN2C(=O)[C@@H](NC(=O)CN2CCC(O[C@H]3C[C@H](NC(=O)C[C@@H]4N=C(c5ccc(Cl)cc5)c5c(sc(C)c5C)-n5c(C)nnc54)C3)CC2)C(C)(C)C)cc1 [Example 345],< 5,> 1
Cc1ncsc1-c1ccc([C@H](C)NC(=O)[C@@H]2C[C@@H](O)CN2C(=O)[C@@H](NC(=O)c2cc3cc(O[C@H]4C[C@@H](NC(=O)C[C@@H]5N=C(c6ccc(Cl)cc6)c6c(sc(C)c6C)-n6c(C)nnc65)C4)ccc3o2)C(C)C)cc1 [Example 336],98,< 0.01
Cc1ncsc1-c1ccc(CNC(=O)[C@@H]2C[C@@H](O)CN2C(=O)[C@H](C(C)C)n2cc(-c3cccc(O[C@@H](C)CNC(=O)C[C@@H]4N=C(c5ccc(Cl)cc5)c5c(sc(C)c5C)-n5c(C)nnc54)c3)cn2)cc1 [Example 199],93,< 0.01
Cc1ncsc1-c1ccc(CNC(=O)[C@@H]2C[C@@H](O)CN2C(=O)[C@@H](NC(=O)COCCCCOc2ccc3c(c2)c2c(C(N)=O)cc(-c4c(C)noc4C)cc2n3Cc2ccccc2)C(C)(C)C)cc1 [Example 175],92,0.01 to 0.1
"Cc1ncsc1-c1ccc(CNC(=O)[C@@H]2C[C@@H](O)CN2C(=O)[C@@H](C(C)C)n2cc(-c3ccnc(O[C@H]4C[C@H](NC(=O)C[C@@H]5N=C(c6ccc(Cl)cc6)c6c(sc(C)c6C)-n6c(C)nnc65)C4)c3)cn2)cc1 [Example 225, (2S,4R)-4-hydroxy-N-{[4-(4-methyl-1,3-thiazol-5-yl)phenyl]methyl}-1-[(2R)-3-methyl-2-(4-{2-[(1,3trans)-3-{2-[(9 S)-7-(4-chlorophenyl)-4,5,13-trimethyl-3-thia-1,8,11, 12-tetraazatricyclo[8.3.0.0^2,^6]trideca-2(6),4,7,10,12-pentaen-9-yl]acetamido}cyclobutoxy]pyridin-4-yl}-1H-pyrazol-1-yl)butanoyl]pyrrolidine-2-carboxamide]",50.4,> 1
"Cc1ncsc1-c1ccc([C@H](C)NC(=O)[C@@H]2C[C@@H](O)CN2C(=O)[C@@H](NC(=O)CN2CCC(O[C@H]3C[C@H](NC(=O)c4ccc5c6ncc(-c7c(C)noc7C)cc6n([C@@H](c6ccccc6)C6CCOCC6)c5c4)C3)CC2)C(C)(C)C)cc1 [Example 366, (2S,4R)-1-[(2S)-3,3-dimethyl-2-(2-{4-[(1,3-trans)-3-[3-(dimethyl-1,2-oxazol-4-yl)-5-[(R)-oxan-4-yl(phenyl)methyl]-5H-pyrido[3,2-b]indole-7-amido]cyclobutoxy]piperidin-1-yl}acetamido)butanoyl]-4-hydroxy-N-[(1S)-1-[4-(4-methyl-1,3-thiazol-5-yl)phenyl]ethyl]pyrrolidine-2-carboxamide]",100,< 0.01
